In series [1] the test system is high fat and high sugar model ICR mice. As to the kind of experiment: Losing weight, depressing blood fat and regulating blood sugar balance in high fat and high sugar ICR mice. The note with it: n = 10, x ± s; for Celiac total fat / Epididymal fat / MDA (serum oxidative damage indicator) / Mesenteric fat / Perirenal fat / SOD (serum oxidative damage indicator) / Serum insulin concentration INS / Subcutaneous fat / FFA / HDL-C / LDL-C / TC / TG: 50 mg/kg intragastric for 30 days; for Body weight 1 week after / Body weight 2 weeks after / Body weight 3 weeks after / Body weight before administration: high fat and high sugar model; for Body weight 1 week after / Body weight 2 weeks after / Body weight 3 weeks after: 50 mg/kg intragastric daily; for Body weight before administration: baseline before 50 mg/kg intragastric; for FFA / HDL-C / LDL-C / TC / TG: serum. Details: Serum insulin concentration INS: unit not given here. The series is classed as in vivo. From the text:
2. Activity Determination of Losing Weight, Depressing Blood Fat and Regulating Blood Sugar Balance of ICR Mice
The experiment refers to the methods of Raquel Ferrer-Lorente et al (European Journal of Pharmacology, 2005, 513: 243-248), which are slightly modified.
Take 40 ICR mice (male, weight 13-15 g) and randomly divide them into two large groups according to their weight, a normal diet group (n=10) and a high fat and high sugar model group (n=30); give normal diet to the normal diet group and conduct subcutaneous injection of physiological saline each day; give high-fat and high-sugar diet to the high fat and high sugar model group and conduct subcutaneous injection of insulin (0.5 U/kg) each day. The food is not restricted. Measure the food regularly each day, weigh the weight once a week and feed 7 consecutive weeks.
7 weeks after modeling, the normal diet group is unchanged and the high fat and high sugar model group is divided into model control group (n=10), I-1 administration group (n=10) and I-2 administration group (n=10). The feed of each group is unchanged. The administration group is given corresponding compounds with the dose of 50 mg/kg and the blank group is given the equal volume of blank solvent. Conduct intragastric administration on each group for consecutive 30 days. Weigh 12 h after fasting after last administration, take the eyeballs for blood, prepare serum, determine the blood fat (triglyceride TG, free fatty acid FFA, total cholesterol TC, low density lipoprotein cholesterol LDL-C and high density lipoprotein cholesterol HDL-C) content and blood insulin content and detect the oxidative damage indicators in the blood (malondialdehyde MAD and superoxide dismutase SOD). Take off the cervical vertebrae to kill the rats, separate the perirenal, testicular, mesenteric and inguinal (subcutaneous) white adipose tissue, wash clean with cold physiological saline and dry with filter paper, and then weigh.

Another series concerns PPARγ2-mRNA. As to the kind of experiment: RT-PCR of PPARγ2-mRNA expression in 3T3-L1 cells. The series is classed as cell-based. The note with it: during differentiation of preadipocyte 3T3-L1; GAPDH internal reference; FIG. 4. The protocol: 4.1.3 Reverse Transcription
Polymerase chain reaction (RT-PCR) experiment Extract the total RNA of fully differentiated 3T3-L1 cells to be reversely transcribed into cDNA. The primers are designed as follows:
• The length of the target product is 567 bp.
• The length of the target product is 424 bp.
PCR amplification conditions: initial denaturation at 94 for 5 min, then denaturize at 94 for 30 s, anneal at 57 for 40 s, and extend at 72 for 50 s, a total of 30 cycles. Finally extend at 72 for 10 min. Then conduct electrophoresis analysis with 1.5% agarose gel. GAPDH is used as the internal reference to alleviate the error between different samples. Compare the optical density of objective band with the optical density of amplified GAPDH band for analysis.

Another series deals with High Fat Diet Rats. Description: Losing weight and depressing blood fat in high-fat diet SD rats. It is filed as in vivo. To be noted: intragastric once a day for a month, compounds 25 mg/kg, sibutramine 1.0 mg/kg, mean ± SD, n = 10. The protocol: 1. Activity Determination of Losing Weight and Depressing Blood Fat of SD Rats
The experiment refers to the methods in Experimental Methodology of Pharmacology compiled by Xu Shuyun et al, People's Medical Publishing House 2002: 1189-1201, which is slightly modified.
SD rates (weight 80 g-100 g, male, clean grade) are randomly divided into the following groups according to the weight:
Blank control group (normal diet group); model control group (high-fat diet group); sibutramine, 1.0 mg/kg; Group I-1, 25 mg/kg; Group I-2, 25 mg/kg; Group I-3, 25 mg/kg; Group II-1, 25 mg/kg; Group II-2, 25 mg/kg; Group II-3, 25 mg/kg.
Except the blank control group, the other groups are fed with high-fat diet for two months. In the third month, all groups are required for intragastric administration and the blank control group and model control group are given appropriate volume of excipients once a day for a consecutive month. After the administration, exsanguinate and kill the rats, take femoral arterial blood and separate the plasma, and then measure the parameters according to the unified operating procedures in the kit instructions. Remove the fat around abdominal cavity and reproductive organs, weigh its wet weight and determine the body weight.

Series [2] deals with 3T3-L1 cells. Description: Oil red staining colorimetric experiment (preadipocyte differentiation). The series is classed as cell-based. To be noted: 8th day of differentiation, 2nd day of administration; FIG. 2 and FIG. 3. The protocol: 4.1.2 Oil Red Staining Colorimetric Experiment
4.1.2.1 Culture 3T3-L1 cells in conventional medium and replace with differential medium I (DMEM culture solution containing 15% FBS, 0.4 mmol/L IBMX, 10 mg/L insulin and 1 μmol/L DEX) 2 d after the cells are completely merged (0 d of differentiation) for culture for 2 d. In the second day of differentiation, replace with differential medium II (DMEM culture solution containing 15% FBS and 10 mg/L insulin) to culture cells. In the 6th day of differentiation and later, replace with corresponding DMEM culture solution containing series I compounds. The control group is the complete culture solution without drugs.
4.1.2.2. Oil Red O Staining
In the 8th day of differentiation, discard the culture solution in the holes, wash with PBS for twice and add the solution containing 10% methanal to fix cells for 2 h. Wash with PBS for twice and stain with 0.5% oil red for 2 h. Wash with PBS for three times, dry at 37, add isopropanol, extract for 10 min and measure the absorbance value of the extract liquor at 492 nm.

Another series deals with KM mice. As to the kind of experiment: Acute toxicity test of KM mice. The series is classed as in vivo. The protocol: 3. Acute Toxicity Test of KM Mice
3.1 I-1 Acute Toxicity Test of Intragastric Administration (ig) for Mice
3.2 I-1 Acute Toxicity Test of Subcutaneous Injection (sc) for Mice
After sc I-1 2000 mg/kg of mice under the conditions of maximum administration capacity and maximum administration concentration, no mice die and the mice toxic symptoms express as decrease in spontaneous activities and often creeping lying without moving. After about 48 h, mice activities begin to increase. Compared with the control group, the weight gain in subsequent observation period is slower.

In series [3] the test system is 3T3-L1 cells. Description: Cell proliferation determination with MTT method. The series is classed as cell-based. The note with it: 25, 50, 100 and 200 μmol/L, 2 d; P<0.05 vs blank group; FIG. 1. The protocol:
4.1.1 Cell Proliferation Determination Experiment with MTT Method
Inoculate 3T3-L1 cells in 96-hole cell culture plate. After 2 d of conventional culture, replace with DMEM culture solutions with different concentrations (25, 50, 100 and 200 μmol/L) of Series I compounds. The control group is the culture solution containing 0.1% (V/V) ethanol (96%). 3 complex holes are set for each concentration in each group, processing 2 d. Discard the culture solution in the holes and add 20 μL MTT solution in each hole and culture at 37 for 4 h. Then discard the solution in the hole, add 100 μL DMSO solution in each hole, shake thoroughly and measure the absorbance (A) immediately in the enzyme-linked immunosorbent assay. The wavelength is measured to be 570 nm.

The conditions of series [4]: cited from earlier work.

Regarding `CCCCC/C=C\C/C=C\CCCCCCCC(=O)Oc1ccc2c(=O)c(-c3ccc(OC)cc3)coc2c1` [I-2, 4′-methoxy-7-O-linoleoyl daizeol], in series [1], the Celiac total fat was found to be 0.329 ± 0.403 g, the Epididymal fat amounted to 0.212 ± 0.239 g, the “MDA (serum oxidative damage indicator)” value turned out to be 1.288 ± 0.145 nmol/L and the Mesenteric fat came to 0.058 ± 0.101 g. Further, in series [1], the Perirenal fat stood at 0.059 ± 0.057 g, the “SOD (serum oxidative damage indicator)” value is given as 424.1 ± 192.8 U/ml, the “Serum insulin concentration INS” value is reported as 22.32 ± 6.39 and the Subcutaneous fat stood at 0.099 ± 0.071 g. Further, in series [1], the “Body weight 1 week after” value is given as 39.1 ± 4.1 g, the “Body weight 2 weeks after” value is on record as 32.9 ± 5.7 g, the “Body weight 3 weeks after” value was 29.5 ± 2.3 g and the “Body weight before administration” value turned out to be 42.0 ± 4.4 g. In series [1], this molecule returned an FFA of 0.43 ± 0.04 mmol/L, an HDL-C of 1.56 ± 0.29 mmol/L, an LDL-C of 0.880 ± 0.655 mmol/L and a TC of 3.18 ± 0.46 mmol/L. This molecule also yielded a TG in series [1] of 0.71 ± 0.22 mmol/L. In addition, the PPARγ2-mRNA expression quantity result in the series with PPARγ2-mRNA was “increased”. In the series on High Fat Diet Rats, the Fat index is 4.3 ± 1.5 g/100 g, the “Free fatty acid FFA” value was 603.8 ± 163.5 µmol/L, the “Total cholesterol TC” value stood at 1.28 ± 0.26 mmol/L and the “Triglyceride TG” value is 0.99 ± 0.21 mmol/L. The molecule also showed a Weight after administration with High Fat Diet Rats of 307 ± 32 g.

`CCCCCCCC/C=C\CCCCCCCC(=O)Oc1ccc2c(=O)c(-c3ccc(OC)cc3)coc2c1` [I-1, 4′-methoxy-7-O-oleoyl daizeol]: in series [1], the Celiac total fat came out at 0.595 ± 0.172 g, the Epididymal fat is listed as 0.382 ± 0.230 g, the “MDA (serum oxidative damage indicator)” value turned out to be 0.810 ± 0.162 nmol/L and the Mesenteric fat stood at 0.135 ± 0.047 g. In addition, in series [1], the Perirenal fat was determined as 0.078 ± 0.050 g, the “SOD (serum oxidative damage indicator)” value turned out to be 382.3 ± 200.9 U/ml, the “Serum insulin concentration INS” value is 20.26 ± 2.69 and the Subcutaneous fat is 0.136 ± 0.065 g. Further, in series [1], the “Body weight 1 week after” value worked out at 39.1 ± 5.2 g, the “Body weight 2 weeks after” value is reported as 33.8 ± 3.7 g, the “Body weight 3 weeks after” value is on record as 31.5 ± 2.0 g and the “Body weight before administration” value is recorded as 41.8 ± 5.7 g. In series [1], the FFA was 0.55 ± 0.14 mmol/L, the HDL-C stood at 1.70 ± 0.53 mmol/L, the LDL-C is 1.068 ± 0.636 mmol/L and the TC worked out at 2.79 ± 0.39 mmol/L. Besides, in series [1], the TG came to 0.97 ± 0.21 mmol/L. Further, the PPARγ2-mRNA expression quantity result in the series on PPARγ2-mRNA is recorded as “increased”. Moreover, in the series on High Fat Diet Rats, the Fat index is recorded as 5.0 ± 1.6 g/100 g, the “Free fatty acid FFA” value came to 606.7 ± 144.7 µmol/L, the “Total cholesterol TC” value came out at 1.31 ± 0.27 mmol/L and the “Triglyceride TG” value was determined as 0.91 ± 0.22 mmol/L. This molecule also registered a Weight after administration with High Fat Diet Rats of 309 ± 36 g. Also, the “Adipose differentiation of 3T3-L1 cells (oil red stained lipid droplets)” value with 3T3-L1 cells [2] is reported as “lipid droplets are significantly decreased”. In addition, the LD50 in the series with KM mice (intragastric administration (ig)) is reported as 2163.8 mg/kg. Moreover, the Mortality entry in the series with KM mice (subcutaneous injection (sc) 2000 mg/kg, maximum administration capacity and concentration) is “no mice die”. Moreover, the “Proliferation of preadipocyte 3T3-L1 (MTT, OD value)” value in the series with 3T3-L1 cells [3] is “significant inhibition action”.

For the molecule `CCCCCCCC/C=C\CCCCCCCC(=O)Oc1ccc2c(c1)CC[C@@H]1[C@@H]2CC[C@]2(C)C(=O)CC[C@@H]12` [OE, Oleoyl-estrone], the Half-life in series [4] (intravenous injection) was 4.17 min. For the same molecule, in series [4] (oral administration), the “Fraction absorbed in estrone water-soluble ester” value is recorded as 12% and the “Fraction absorbed in free estrone form” value is listed as 17%.

The values are drawn from patent US8846752B2, “Isoflavone fatty acid ester derivatives, preparation method and pharmaceutical uses thereof” (China Pharmaceutical University, priority 2010, dated 2014).
